Data from patent US20090221665A1, “Organic Compounds” (priority 2005, published 2009).

Test system: male rats
Test: Fecal pellet output in male rats after i.p. dosing
Format: in vivo, rat
Conditions: for fecal pellet output (in words): dosed alone, every 30 mins for 2 hr
Method: Methods: In male rats (200-300 g) fecal pellet output was measured every 30 mins for 2 hr following administration of tegaserod (0.01-1.0 mg/kg i.p.), neostigmine (0.01-0.1 mg/kg i.p.) or a combination of both compounds.

SMILES | # Fecal Pellets (Neo 0.01 mg/kg i.p. alone, 30 min) | # Fecal Pellets (Neo 0.01 mg/kg i.p. alone, 60 min) | # Fecal Pellets (Neo 0.01 mg/kg i.p. alone, 90 min) | # Fecal Pellets (Neo 0.01 mg/kg i.p. alone, 120 min) | fecal pellet output (in words) (neostigmine 0.01-0.1 mg/kg i.p.) | # Fecal Pellets (Teg 0.01 mg/kg i.p. alone, 30 min) | # Fecal Pellets (Teg 0.01 mg/kg i.p. alone, 60 min) | # Fecal Pellets (Teg 0.01 mg/kg i.p. alone, 90 min) | # Fecal Pellets (Teg 0.01 mg/kg i.p. alone, 120 min) | # Fecal Pellets (Teg 0.1 mg/kg i.p. alone, 30 min) | # Fecal Pellets (Teg 0.1 mg/kg i.p. alone, 60 min) | # Fecal Pellets (Teg 0.1 mg/kg i.p. alone, 90 min) | # Fecal Pellets (Teg 0.1 mg/kg i.p. alone, 120 min) | fecal pellet output (in words) (tegaserod 0.01-1.0 mg/kg i.p.)
CN(C)C(=O)Oc1cccc([N+](C)(C)C)c1 [Neo, neostigmine] | 0.67 ± 0.33 | 1.00 ± 0.58 | 1.00 ± 0.58 | 1.33 ± 0.67 | dose and time-dependent increase in fecal pellet output |  |  |  |  |  |  |  |  | 
CCCCCNC(=N)N/N=C/c1c[nH]c2ccc(OC)cc12 [Teg, 3-(5-methoxy-1H-indol-3-yl-methylene)-N-pentylcarbazimidamide] |  |  |  |  |  | 0.17 ± 0.17 | 0.17 ± 0.17 | 0.33 ± 0.21 | 1.50 ± 0.62 | 0.83 ± 0.32 | 1.25 ± 0.35 | 1.50 ± 0.34 | 1.83 ± 0.39 | dose and time-dependent increase in fecal pellet output
